The values that follow are results of earlier work, collected in patent US20240115517A1, “COMPOSITIONS AND METHODS FOR IMPROVING SKIN BARRIER” (LYCORED LTD., priority 0001, published 2024).

In data set [1] the test system is 36 male subjects.
The conditions of data set [2]: 4 mg/day, 9 weeks.

For the compound `CC1=C(/C=C/C(C)=C/C=C/C(C)=C/C=C/C=C(C)/C=C/C=C(C)/C=C/C2=C(C)C(=O)[C@@H](O)CC2(C)C)C(C)(C)C[C@H](O)C1=O` [astaxanthin, Astaxanthin], in data set [1] (6 mg per day, 6 weeks), the “TEWL compared to controls” value is recorded as “significantly reduced”. The “minor wrinkles, age spot size, elasticity, hydration” value in data set [1] (astaxanthin supplementation) is listed as “improvements”. The “minimal erythema dose of UV” value in data set [2] is listed as “increase”. The “increase of TEWL at the site of irradiation versus control group” value in data set [2] (after UV irradiation) is given as “significantly less”.
